As usually defined, the IC50 is the point on the concentration scale where inhibition reaches its midpoint. A high value points to a need for much substance.

Two compounds from BindingDB's records for PubMed 37981443 (National Clinical Research Center for Geriatrics) can be followed below.

Molecules are shown by their SMILES.

Assay [1] addresses 1-phosphatidylinositol 3-phosphate 5-kinase (Homo sapiens, UniProt Q9Y2I7). The assay can be described thus: Inhibition of N-terminal His-tagged human PIKfyve expressed in Sf9 insect cells incubated for 1 hr by enzyme assay.
The target in another assay is Procathepsin L (Homo sapiens, UniProt P07711). As to the kind of experiment: Inhibition of Cathepsin L (unknown origin).
Chain of Procathepsin L (P07711 whole entry): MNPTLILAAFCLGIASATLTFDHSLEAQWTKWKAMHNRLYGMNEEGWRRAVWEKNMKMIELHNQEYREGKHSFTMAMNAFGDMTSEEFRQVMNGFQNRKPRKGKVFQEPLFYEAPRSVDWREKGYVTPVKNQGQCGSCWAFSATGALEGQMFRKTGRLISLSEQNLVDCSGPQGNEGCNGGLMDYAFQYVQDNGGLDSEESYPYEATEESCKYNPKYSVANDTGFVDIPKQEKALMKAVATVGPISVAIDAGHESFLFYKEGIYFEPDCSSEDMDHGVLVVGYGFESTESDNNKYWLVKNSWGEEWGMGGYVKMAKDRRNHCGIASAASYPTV

Chain of 1-phosphatidylinositol 3-phosphate 5-kinase (Q9Y2I7 whole entry): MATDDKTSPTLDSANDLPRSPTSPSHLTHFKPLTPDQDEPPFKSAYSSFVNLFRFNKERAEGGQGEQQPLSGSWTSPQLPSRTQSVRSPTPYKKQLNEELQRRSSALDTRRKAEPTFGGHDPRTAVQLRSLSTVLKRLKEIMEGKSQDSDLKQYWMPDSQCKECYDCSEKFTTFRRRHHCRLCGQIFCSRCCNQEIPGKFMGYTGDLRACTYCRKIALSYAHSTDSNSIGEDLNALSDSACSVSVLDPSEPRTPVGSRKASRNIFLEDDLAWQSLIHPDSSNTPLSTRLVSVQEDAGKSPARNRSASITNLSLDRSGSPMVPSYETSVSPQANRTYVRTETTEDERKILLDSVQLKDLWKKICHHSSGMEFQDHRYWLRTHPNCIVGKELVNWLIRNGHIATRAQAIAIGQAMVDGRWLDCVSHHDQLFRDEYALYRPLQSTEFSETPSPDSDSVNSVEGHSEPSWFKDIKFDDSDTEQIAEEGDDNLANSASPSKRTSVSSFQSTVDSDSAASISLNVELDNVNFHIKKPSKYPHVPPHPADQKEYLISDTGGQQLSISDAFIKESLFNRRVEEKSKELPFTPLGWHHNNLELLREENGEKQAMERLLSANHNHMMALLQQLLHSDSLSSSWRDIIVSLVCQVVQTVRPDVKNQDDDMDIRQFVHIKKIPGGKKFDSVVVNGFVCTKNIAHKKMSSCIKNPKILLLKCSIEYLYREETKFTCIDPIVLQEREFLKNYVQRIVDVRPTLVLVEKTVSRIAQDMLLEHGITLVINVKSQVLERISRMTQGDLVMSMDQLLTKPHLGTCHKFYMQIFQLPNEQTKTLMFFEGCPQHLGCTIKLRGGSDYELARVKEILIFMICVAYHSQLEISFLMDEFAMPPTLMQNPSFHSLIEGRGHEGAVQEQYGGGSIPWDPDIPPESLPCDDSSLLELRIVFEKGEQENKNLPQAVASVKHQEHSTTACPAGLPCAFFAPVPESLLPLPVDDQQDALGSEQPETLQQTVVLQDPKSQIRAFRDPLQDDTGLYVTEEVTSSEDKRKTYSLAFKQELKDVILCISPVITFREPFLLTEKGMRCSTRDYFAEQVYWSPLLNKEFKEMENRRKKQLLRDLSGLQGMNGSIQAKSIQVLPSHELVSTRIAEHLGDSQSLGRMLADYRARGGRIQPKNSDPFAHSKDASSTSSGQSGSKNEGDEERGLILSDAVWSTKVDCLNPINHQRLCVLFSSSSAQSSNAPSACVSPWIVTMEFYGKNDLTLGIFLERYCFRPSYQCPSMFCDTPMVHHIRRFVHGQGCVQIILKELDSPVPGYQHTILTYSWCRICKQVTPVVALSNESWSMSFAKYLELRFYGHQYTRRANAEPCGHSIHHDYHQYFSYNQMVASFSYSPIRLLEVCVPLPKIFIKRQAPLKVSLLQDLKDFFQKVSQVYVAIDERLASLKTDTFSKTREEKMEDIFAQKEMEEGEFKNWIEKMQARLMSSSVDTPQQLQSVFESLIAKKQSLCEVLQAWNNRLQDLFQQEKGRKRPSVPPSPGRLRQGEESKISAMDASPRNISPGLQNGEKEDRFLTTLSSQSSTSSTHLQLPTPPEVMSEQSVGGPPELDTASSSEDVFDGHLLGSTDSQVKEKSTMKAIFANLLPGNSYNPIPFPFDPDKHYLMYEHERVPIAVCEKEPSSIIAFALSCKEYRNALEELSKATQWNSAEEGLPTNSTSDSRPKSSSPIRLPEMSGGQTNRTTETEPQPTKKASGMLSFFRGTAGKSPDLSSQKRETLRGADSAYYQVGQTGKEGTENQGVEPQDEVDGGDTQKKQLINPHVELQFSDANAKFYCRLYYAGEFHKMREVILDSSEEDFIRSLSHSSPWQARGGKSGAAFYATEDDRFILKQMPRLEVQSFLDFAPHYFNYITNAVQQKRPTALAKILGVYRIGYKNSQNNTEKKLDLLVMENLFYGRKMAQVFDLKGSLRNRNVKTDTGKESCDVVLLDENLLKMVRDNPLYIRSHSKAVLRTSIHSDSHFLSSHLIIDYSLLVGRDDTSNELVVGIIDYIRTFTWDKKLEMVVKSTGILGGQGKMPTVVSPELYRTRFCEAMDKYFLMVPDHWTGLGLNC

Compound `COc1ccc2[nH]c(C)c(/C=C/C(=O)c3ccncc3)c2c1` had an IC50 in assay [1] of 5.1 nM. `CCCC[C@@H](C=O)NC(=O)[C@H](CC(C)C)NC(=O)OCc1ccccc1` [[(S)-1-((S)-1-Formyl-pentylcarbamoyl)-3-methyl-butyl]-carbamic acid benzyl ester] showed an IC50 on Procathepsin L of 44 nM.
